Data: patent US6706740B2, “Fungicidal heterocyclic aromatic amides and their compositions, methods of use and preparation” (Dow AgroSciences LLC, priority 1999, dated 2004)

Each molecule was assayed on Magnaporthe grisea (Pyricularia oryzae—PYRIOR) (assay: microbe, parasite or virus in culture). Conditions: Pyricularia oryzae, read-out: PYRIOR in vitro Growth Inhibition.
Type: cell-based

Structure (SMILES)	inhibition at 25 ppm [%]
COc1ccnc(C(=O)N[C@H]2COC(=O)[C@H](Cc3ccccc3)[C@@H](OC(=O)C(C)C)[C@H](C)OC2=O)c1OC(=O)COCc1ccccc1 [Compound 656]	> 80
O=C(Nc1ccccc1Oc1cccc(C(F)(F)F)c1)c1nc(Br)ccc1O [Compound 492]	< 80
O=C(Nc1ccc(Oc2cccc(C(F)(F)F)c2)cc1)c1cscc1O [Compound 555]	> 80
C[C@@H](NC(=O)c1ncccc1O)c1cccc2ccccc12 [Compound 231]	> 80

What follows are molecules tested on Rhizoctonia solani (RHIZSO) (assay: microbe, parasite or virus in culture). Conditions: Rhizoctonia solani, read-out: RHIZSO in vitro Growth Inhibition.
Type: cell-based

Structure (SMILES)	inhibition at 25 ppm [%]
COc1ccnc(C(=O)N[C@H]2COC(=O)[C@H](Cc3ccccc3)[C@@H](OC(=O)C(C)C)[C@H](C)OC2=O)c1OC(=O)COCc1ccccc1 [Compound 656]	< 80
O=C(Nc1ccccc1Oc1cccc(C(F)(F)F)c1)c1nc(Br)ccc1O [Compound 492]	< 80
O=C(Nc1ccc(Oc2cccc(C(F)(F)F)c2)cc1)c1cscc1O [Compound 555]	> 80
C[C@@H](NC(=O)c1ncccc1O)c1cccc2ccccc12 [Compound 231]	< 80

These molecules were tested on Mycosphaerella graminicola (Septoria tritici—SEPTTR) (assay: In vitro fungal growth inhibition, Mycosphaerella graminicola (SEPTTR)). Conditions: Zymoseptoria tritici; 25 ppm in growth medium; read-out: SEPTTR in vitro Growth Inhibition.
Type: cell-based

Structure (SMILES)	inhibition at 25 ppm [%]
COc1ccnc(C(=O)N[C@H]2COC(=O)[C@H](Cc3ccccc3)[C@@H](OC(=O)C(C)C)[C@H](C)OC2=O)c1OC(=O)COCc1ccccc1 [Compound 656]	< 80
C[C@@H](NC(=O)c1ncccc1O)c1cccc2ccccc12 [Compound 231]	< 80

Same assay, conditions: Zymoseptoria tritici; 25 ppm in the growth medium; read-out: SEPTTR in vitro Growth Inhibition

Structure (SMILES)	inhibition at 25 ppm [%]
O=C(Nc1ccccc1Oc1cccc(C(F)(F)F)c1)c1nc(Br)ccc1O [Compound 492]	< 80
O=C(Nc1ccc(Oc2cccc(C(F)(F)F)c2)cc1)c1cscc1O [Compound 555]	> 80

The molecules below were run on Stagonospora nodorum (Leptosphaeria nodorum—LEPTNO) (assay: In vitro fungal growth inhibition, Stagonospora nodorum (LEPTNO)). Conditions: Leptosphaeria; 25 ppm in growth medium; read-out: LEPTNO in vitro Growth Inhibition.
Type: cell-based

Structure (SMILES)	inhibition at 25 ppm [%]
COc1ccnc(C(=O)N[C@H]2COC(=O)[C@H](Cc3ccccc3)[C@@H](OC(=O)C(C)C)[C@H](C)OC2=O)c1OC(=O)COCc1ccccc1 [Compound 656]	> 80
C[C@@H](NC(=O)c1ncccc1O)c1cccc2ccccc12 [Compound 231]	< 80

Same assay, conditions: Leptosphaeria; 25 ppm in the growth medium; read-out: LEPTNO in vitro Growth Inhibition

Structure (SMILES)	inhibition at 25 ppm [%]
O=C(Nc1ccccc1Oc1cccc(C(F)(F)F)c1)c1nc(Br)ccc1O [Compound 492]	< 80
O=C(Nc1ccc(Oc2cccc(C(F)(F)F)c2)cc1)c1cscc1O [Compound 555]	> 80

The molecules below were run on Ustilago maydis (USTIMA) (assay: microbe, parasite or virus in culture). Conditions: Mycosarcoma maydis, read-out: USTIMA in vitro Growth Inhibition.
Type: cell-based

Structure (SMILES)	inhibition at 25 ppm [%]
COc1ccnc(C(=O)N[C@H]2COC(=O)[C@H](Cc3ccccc3)[C@@H](OC(=O)C(C)C)[C@H](C)OC2=O)c1OC(=O)COCc1ccccc1 [Compound 656]	< 80
O=C(Nc1ccccc1Oc1cccc(C(F)(F)F)c1)c1nc(Br)ccc1O [Compound 492]	< 80
O=C(Nc1ccc(Oc2cccc(C(F)(F)F)c2)cc1)c1cscc1O [Compound 555]	< 80
C[C@@H](NC(=O)c1ncccc1O)c1cccc2ccccc12 [Compound 231]	< 80

The molecules below were run on Phytophthora infestans (PHYTIN) (assay: microbe, parasite or virus in culture). Conditions: Phytophthora infestans, read-out: PHYTIN in vitro Growth Inhibition.
Type: cell-based

Structure (SMILES)	inhibition at 25 ppm [%]
COc1ccnc(C(=O)N[C@H]2COC(=O)[C@H](Cc3ccccc3)[C@@H](OC(=O)C(C)C)[C@H](C)OC2=O)c1OC(=O)COCc1ccccc1 [Compound 656]	< 80
O=C(Nc1ccccc1Oc1cccc(C(F)(F)F)c1)c1nc(Br)ccc1O [Compound 492]	< 80
O=C(Nc1ccc(Oc2cccc(C(F)(F)F)c2)cc1)c1cscc1O [Compound 555]	> 80
C[C@@H](NC(=O)c1ncccc1O)c1cccc2ccccc12 [Compound 231]	< 80

These molecules were tested on Phytophthora infestans—PHYTIN (assay: whole plant or invertebrate). Conditions: Phytophthora, in Solanum lycopersicum, 24 h, read-out: PHYTIN in vivo 1 Day Protectant.
Type: in vivo

Structure (SMILES)	pest or weed control at 100 ppm [%]
COc1ccnc(C(=O)N[C@H]2COC(=O)[C@H](Cc3ccccc3)[C@@H](OC(=O)C(C)C)[C@H](C)OC2=O)c1OC(=O)COCc1ccccc1 [Compound 656]	< 25
O=C(Nc1ccccc1Oc1cccc(C(F)(F)F)c1)c1nc(Br)ccc1O [Compound 492]	< 25
O=C(Nc1ccc(Oc2cccc(C(F)(F)F)c2)cc1)c1cscc1O [Compound 555]	< 25
C[C@@H](NC(=O)c1ncccc1O)c1cccc2ccccc12 [Compound 231]	< 25

Each molecule was assayed on Puccinia recondita—PUCCRT (assay: Brown Rust of Wheat, in vivo whole plant, 24 Hour Protectant). Conditions: 100 ppm spray, wheat, 24 hour protectant, % control of fungal infection vs untreated plants.

Structure (SMILES)	PUCCRT in vivo 1 Day Protectant
COc1ccnc(C(=O)N[C@H]2COC(=O)[C@H](Cc3ccccc3)[C@@H](OC(=O)C(C)C)[C@H](C)OC2=O)c1OC(=O)COCc1ccccc1 [Compound 656]	+ +

Same assay, conditions: Puccinia; 100 ppm spray, 24 hour protectant, wheat; control of fungal infection vs untreated plants; read-out: PUCCRT in vivo 1 Day Protectant

Structure (SMILES)	pest or weed control at 100 ppm [%]
C[C@@H](NC(=O)c1ncccc1O)c1cccc2ccccc12 [Compound 231]	< 25

Same assay, conditions: Puccinia; wheat plants sprayed at 100 ppm, inoculated after 24 hours; control of fungal infection vs untreated plants; read-out: PUCCRT in vivo 1 Day Protectant

Structure (SMILES)	pest or weed control at 100 ppm [%]
O=C(Nc1ccccc1Oc1cccc(C(F)(F)F)c1)c1nc(Br)ccc1O [Compound 492]	< 25
O=C(Nc1ccc(Oc2cccc(C(F)(F)F)c2)cc1)c1cscc1O [Compound 555]	< 25

These molecules were tested on Erysiphe graminis—ERYSGT (assay: Powdery Mildew of Wheat, in vivo whole plant, 24 Hour Protectant). Conditions: Erysiphe; 100 ppm spray, 24 hour protectant, wheat; control of fungal infection vs untreated plants; read-out: ERYSGT in vivo 1 Day Protectant.

Structure (SMILES)	pest or weed control at 100 ppm [%]
C[C@@H](NC(=O)c1ncccc1O)c1cccc2ccccc12 [Compound 231]	< 25

Same assay, conditions: Erysiphe; 100 ppm spray, wheat, 24 hour protectant, % control of fungal infection vs untreated plants; read-out: ERYSGT in vivo 1 Day Protectant

Structure (SMILES)	pest or weed control at 100 ppm [%]
COc1ccnc(C(=O)N[C@H]2COC(=O)[C@H](Cc3ccccc3)[C@@H](OC(=O)C(C)C)[C@H](C)OC2=O)c1OC(=O)COCc1ccccc1 [Compound 656]	< 25

Same assay, conditions: Erysiphe; wheat plants sprayed at 100 ppm, inoculated after 24 hours; control of fungal infection vs untreated plants; read-out: ERYSGT in vivo 1 Day Protectant

Structure (SMILES)	pest or weed control at 100 ppm [%]
O=C(Nc1ccccc1Oc1cccc(C(F)(F)F)c1)c1nc(Br)ccc1O [Compound 492]	< 25
O=C(Nc1ccc(Oc2cccc(C(F)(F)F)c2)cc1)c1cscc1O [Compound 555]	< 25

Each molecule was assayed on Septoria tritici—SEPTTR (assay: Leaf Blotch of Wheat, in vivo whole plant, 24 Hour Protectant). Conditions: 100 ppm spray, wheat, 24 hour protectant, % control of fungal infection vs untreated plants.

Structure (SMILES)	SEPTTR in vivo 1 Day Protectant
COc1ccnc(C(=O)N[C@H]2COC(=O)[C@H](Cc3ccccc3)[C@@H](OC(=O)C(C)C)[C@H](C)OC2=O)c1OC(=O)COCc1ccccc1 [Compound 656]	+ +

Same assay, conditions: Zymoseptoria tritici, 24 h, 100 ppm spray, 24 hour protectant, wheat; control of fungal infection vs untreated plants; read-out: SEPTTR in vivo 1 Day Protectant

Structure (SMILES)	pest or weed control at 100 ppm [%]
C[C@@H](NC(=O)c1ncccc1O)c1cccc2ccccc12 [Compound 231]	< 25

Same assay, conditions: Zymoseptoria tritici, 24 h, wheat plants sprayed at 100 ppm, inoculated after 24 hours; control of fungal infection vs untreated plants; read-out: SEPTTR in vivo 1 Day Protectant

Structure (SMILES)	pest or weed control at 100 ppm [%]
O=C(Nc1ccccc1Oc1cccc(C(F)(F)F)c1)c1nc(Br)ccc1O [Compound 492]	25 to 74
O=C(Nc1ccc(Oc2cccc(C(F)(F)F)c2)cc1)c1cscc1O [Compound 555]	25 to 74

What follows are molecules tested on Leptosphaeria nodorum—LEPTNO (assay: Glume Blotch of Wheat, in vivo whole plant, 24 Hour Protectant). Conditions: 100 ppm spray, wheat, 24 hour protectant, % control of fungal infection vs untreated plants.

Structure (SMILES)	LEPTNO in vivo 1 Day Protectant
COc1ccnc(C(=O)N[C@H]2COC(=O)[C@H](Cc3ccccc3)[C@@H](OC(=O)C(C)C)[C@H](C)OC2=O)c1OC(=O)COCc1ccccc1 [Compound 656]	+ +

Same assay, conditions: Leptosphaeria; 100 ppm spray, 24 hour protectant, wheat; control of fungal infection vs untreated plants; read-out: LEPTNO in vivo 1 Day Protectant

Structure (SMILES)	pest or weed control at 100 ppm [%]
C[C@@H](NC(=O)c1ncccc1O)c1cccc2ccccc12 [Compound 231]	< 25

Same assay, conditions: Leptosphaeria; wheat plants sprayed at 100 ppm, inoculated after 24 hours; control of fungal infection vs untreated plants; read-out: LEPTNO in vivo 1 Day Protectant

Structure (SMILES)	pest or weed control at 100 ppm [%]
O=C(Nc1ccccc1Oc1cccc(C(F)(F)F)c1)c1nc(Br)ccc1O [Compound 492]	< 25
O=C(Nc1ccc(Oc2cccc(C(F)(F)F)c2)cc1)c1cscc1O [Compound 555]	25 to 74
